Results published in US12509436B2, “Benzamide derivatives as cGAS-sting pathway agonists” (Baruch S. Blumberg Institute, priority 2018, dated 2025).

Test system: HepG2/STING/ISG54Luc reporter cells
Test: ISG54 luciferase reporter assay
Type: cell-based
Conditions: Homo sapiens, MinEC5X: minimum effective concentration to induce 5-fold luciferase activity vs mock-treated controls, 4 h post treatment, read-out: Concentration required for 5-fold of IFN-[…] induction
Description: Cell lines. Human hepatoblastoma cell line HepG2 was obtained from ATCC. Establishment of HepG2-derived cell line stably expressing human STING: HepG2 cells stably expressing wild-type human STING (HepG2/STING), were established by transduction of pCX4bsr retroviral vector (Addgene) containing the corresponding STING cDNA and selection with 10 μg/ml of blasticidin. The HepG2/STING cells were then transduced by pGreenFire ISRE lentivector system (System Biosciences) to generate a reporter cell line HepG2/STING/ISG54Luc that expresses firefly luciferase under the control of an ISG54 promoter. The pGreenFire ISRE reporter lentiviral vector contains four copies of consensus interferon stimulated response element (ISRE) sequences derived from ISG54 ISRE1, which control the expression of both green fluorescent protein (GFP) and firefly luciferase in response to IRF3 activation and IFN stimulation. HepG2/STING/ISG54Luc cells were maintained in Dulbecco's modified minimal essential medium (DMEM)/F12 (Invitrogen) supplemented with 10% fetal bovine serum, 100 U/ml penicillin and 100 μg/ml streptomycin, as well as 400 μg/ml of G418 and 2 μg/ml of puromycin.
ISG54 luciferase reporter assay: HepG2/STING/ISG54Luc reporter cells were seeded in black wall/clear bottom 96-well plates at a density of 4×10^4/well in […] of medium overnight. The test compounds were dissolved in DMSO with a stock concentration of 100 mM, and subjected to evaluation of dose-dependent effect on luciferase activity, starting from 100 μM in 2-fold dilution down to 0.78 μM. The experiments were performed in triplex wells.
The firefly luciferase activities were determined at 4 h post treatment with test compounds by using equal volume ([…]) of Steady-Glo to the culture medium (Promega), followed by luminometry in a TopCounter (Perkin Elmer).
Reporting the ISG54 promotor activation activity. The luciferase activities were converted to fold of induction relative to mock treated control. A dose-dependent curve of luciferase activities (fold of induction) for each test compound was generated using average value from the triplex wells. The activity of the test compounds was reported based on the Minimum Effective Concentration (MinEC5X) to induce 5-fold luciferase activity than that of the mock-treated controls.

Structure (SMILES)	EC (5-fold induction) [µM]
O=C(Nc1cccc2ccccc12)c1ccc(Cl)cc1F	≤ 50
O=C(Nc1cccc2ccccc12)c1ccc(F)cc1Br	≤ 50
O=C(Nc1cccc2ccccc12)c1cc2c(cc1Br)OCO2	≤ 50
Cc1cccc(NC(=O)c2cc3c(cc2Br)OCO3)c1C	≤ 50
O=C(Nc1cccc2ccccc12)c1ccc(Cl)cc1Br	≤ 50
Cc1c(Br)cccc1NC(=O)c1cc2c(cc1Br)OCO2	≤ 50
Cn1nc(C(=O)Nc2cccc3ccccc23)c2ccccc21	≤ 50
O=C(Nc1cccc2ccccc12)c1cccc(Cl)c1Cl	≤ 50
O=C(Nc1cccc2c1CCCC2)c1cc2c(cc1Br)OCO2	≤ 50
O=C(Nc1cccc2ccccc12)c1ccc(Br)cc1Cl	≤ 50
O=C(Nc1cccc2c1CCC2)c1cc(F)c(F)cc1Br	≤ 50
O=C(Nc1cccc2c1CCCC2)c1cc(F)c(F)cc1Br	≤ 50
O=C(Nc1cccc2ccccc12)c1ccc(Cl)cc1Cl	≤ 50
O=C(Nc1cccc2c1CCC2)c1cc2c(cc1Br)OCO2	≤ 50
O=C1CCN(C(=O)c2cc3c(cc2Br)OCO3)c2ccccc21	≤ 50
O=C(Nc1cccc(Cl)c1Cl)c1cc2c(cc1Br)OCO2	≤ 50
O=C(Nc1cccc2ccccc12)c1ccccc1Br	50 to 100
Cc1c(F)cccc1NC(=O)c1cc2c(cc1Br)OCO2	≤ 50
C=C(C)c1ccccc1NC(=O)c1cc2c(cc1Br)OCO2	≤ 50
Cc1cccc(NC(=O)c2cc3c(cc2Br)OCO3)c1Br	≤ 50
O=C(Nc1cccc2ccccc12)c1nccnc1Cl	≤ 50
COc1ccc(C(=O)Nc2cccc3ccccc23)c(Br)c1	≤ 50
Cc1cccc(C)c1NC(=O)c1cc2c(cc1Br)OCO2	≤ 50
Cc1cc(Cl)ccc1C(=O)Nc1cccc2ccccc12	≤ 50
O=C(Nc1cccc2ccccc12)c1cc(F)c(F)cc1Br	≤ 50
Cc1cccc(NC(=O)c2cc(F)c(F)cc2Br)c1C	50 to 100
O=C(Nc1cccc2ccccc12)c1cc(F)ccc1Br	≤ 50
